# Measurements taken from patent publication EP1075186B1, “METHOD OF HSV PROPHYLAXIS” (The Children's Hospital Research Foundation, priority 1998, dated 1999).
# Assays:
# VZV = experiment: In vitro assay with VZV on HFF cell monolayers; type: cell-based; details: Example 2, Table 17, 0.1 mg/ml, footnote: this toxicity observation is questionable
# Experimental: VZV was grown to a CPE level […] of 3-4 + on HFF cell monolayers. The VZV was scraped from the flask, centrifuged and the cell pellet was resuspended in 10 ml of complete medium. 100 to 200 µl of the VZV cell associated inoculum was inoculated onto confluent HFF cell monolayers by absorption for 60 minutes at 37°C. After absorption of the virus, the inoculum was aspirated from the cell monolayers.
# The VZV-infected monolayers were rehydrated with medium containing the appropriate concentrations of compounds to be tested. All monolayers were incubated at 37°C. Development of VZV cytopathology was monitored daily for 7 days by inverted light microscopy. Titers were calculated by multiple regression analysis.
# [1] = tested on: human foreskin fibroblast (HFF) cell monolayers; experiment: Toxicity effects controls (sham-inoculated compound treated HFF monolayers); type: cell-based; details: for TOXICITY EFFECTS CONTROL: Experiment 4, Table 10
# From the text: Sham-incolulated, non-treated HFF cell monolayers were included along with the drug-treated monolayers as "cell monolayer controls". • 1. HSV-1 inoculated, non-compound treated HFF monolayers were included as "positive controls"; and • 2.
# In the tables, the symbols have the meaning indicated: + = toxic; - = no toxicity; +/- = mild toxicity; ND = not done; T = toxicity effects interfered with CPE rating; CPE = cytopathic effect.
# HSV-2 strain 186 [2] = experiment: Mouse genital HSV-2 model, intravaginal prophylaxis; type: in vivo, Swiss Webster mice; details: repeat study
# HSV-2 strain 186 [3] = experiment: as above; type: in vivo, Swiss Webster mice
# Experimental: Sixty female Swiss Webster mice pretreated with medroxyprogesterone acetate were randomized to four groups of 15 to receive either Saline (control), 2 % Acyclovir, 2 % Compound 96, or 0.5% Compound 96. Animals were anesthetized by intraperitoneal injection of sodium pentabarbital and then administered 15 µl of control or test compound intravaginally in one treatment. They were then immediately challenged by intravaginal instillation with 15 µl of a suspension containing 10^4 plaque forming units HSV-2 strain 186. Vaginal swabs were collected on days 1 and 2 post-inoculation (PI) to assess the effect of treatment on vaginal replication in the genital tract. In addition, all animals were examined daily until day 21 PI for mortality and signs of infection (erythema, hair loss and hind limb paralysis).
# [4] = Experiment 3, Table 7, 0.001 mg/ml, 24 hrs post incubation
# [5] = Experiment 3, Table 7, 0.001 mg/ml, 48 hrs post incubation
# [6] = Experiment 3, Table 7, 0.01 mg/ml, 24 hrs post incubation
# [7] = Experiment 3, Table 7, 0.01 mg/ml, 48 hrs post incubation
# [8] = Experiment 3, Table 7, 0.1 mg/ml, 24 hrs post incubation
# [9] = Experiment 3, Table 7, 0.1 mg/ml, 48 hrs post incubation
# [10] = Experiment 3, Table 7, 0.5 mg/ml, 24 hrs post incubation
# [11] = Experiment 3, Table 7, 0.5 mg/ml, 48 hrs post incubation
# [12] = Experiment 3, Table 7, 1 mg/ml, 24 hrs post incubation
# [13] = Experiment 3, Table 7, 1 mg/ml, 48 hrs post incubation
# [14] = Experiment 3, Table 7, 5 mg/ml, 24 hrs post incubation
# [15] = Experiment 3, Table 7, 5 mg/ml, 48 hrs post incubation
# [16] = Experiment 5, Table 12, 48 Hours Post Incubation, 0.001 mg/ml
# [17] = Experiment 5, Table 12, 48 Hours Post Incubation, 0.01 mg/ml
# [18] = Experiment 5, Table 12, 48 Hours Post Incubation, 1 mg/ml
# [19] = Experiment 5, cell rounding, detaching from the monolayer, increased granularity, loss of normal morphology
# [20] = Experiment 2, Table 4, 0.001 mg/ml, 24 h PI
# [21] = Experiment 2, Table 4, 0.001 mg/ml, 48 h PI
# [22] = Experiment 2, Table 4, 0.01 mg/ml, 24 h PI
# [23] = Experiment 2, Table 4, 0.01 mg/ml, 48 h PI
# [24] = Experiment 2, Table 4, 0.1 mg/ml, 24 h PI
# [25] = Experiment 2, Table 4, 0.1 mg/ml, 48 h PI
# [26] = Experiment 2, Table 4, 1 mg/ml, 24 h PI
# [27] = Experiment 2, Table 4, 1 mg/ml, 48 h PI
# [28] = Experiment 5, Table 12, 48 Hours Post Incubation, 2 mg/ml
# [29] = Experiment 5, Table 12, 48 Hours Post Incubation, 5 mg/ml
compound,measurement,setting,value
CC1=C(Cl)C(C)=[N+]2CC[N+]3=C(C)C(Cl)=C(C)[O][Co-3]23([n+]2cc[nH]c2)([n+]2cc[nH]c2)[O]1 [Compound 93],VIRUCIDAL EFFICACY 7 Days Post Inoculation Efficacy,VZV,T?
same,TOXICITY EFFECTS CONTROLS,[1]; [4],-
same,TOXICITY EFFECTS CONTROLS,[1]; [5],-
same,TOXICITY EFFECTS CONTROLS,[1]; [6],-
same,TOXICITY EFFECTS CONTROLS,[1]; [7],-
same,TOXICITY EFFECTS CONTROLS,[1]; [8],-
same,TOXICITY EFFECTS CONTROLS,[1]; [9],+/-
same,TOXICITY EFFECTS CONTROLS,[1]; [10],-
same,TOXICITY EFFECTS CONTROLS,[1]; [11],-
same,TOXICITY EFFECTS CONTROLS,[1]; [12],-
same,TOXICITY EFFECTS CONTROLS,[1]; [13],-
same,TOXICITY EFFECTS CONTROLS,[1]; [14],+/-
same,TOXICITY EFFECTS CONTROLS,[1]; [15],+/-
same,TOXICITY EFFECTS CONTROLS,[1]; [16],-
same,TOXICITY EFFECTS CONTROLS,[1]; [17],-
same,TOXICITY EFFECTS CONTROLS,[1]; [18],+/-
same,toxicity,[1]; [19],more pronounced in the 0.5 and the 0.1 mg/ml concentrations
"CC1=CC(C)=[N+]2CC[N+]3=C(C)C=C(C)[O][Co-3]23([NH2])([NH3+])[O]1 [Compound 23, reference compound]",VIRUCIDAL EFFICACY 7 Days Post Inoculation Efficacy,VZV,T?
same,TOXICITY EFFECTS CONTROLS,[1]; [20],-
same,TOXICITY EFFECTS CONTROLS,[1]; [21],-
same,TOXICITY EFFECTS CONTROLS,[1]; [22],-
same,TOXICITY EFFECTS CONTROLS,[1]; [23],-
same,TOXICITY EFFECTS CONTROLS,[1]; [24],-
same,TOXICITY EFFECTS CONTROLS,[1]; [25],-
same,TOXICITY EFFECTS CONTROLS,[1]; [26],+/-
same,TOXICITY EFFECTS CONTROLS,[1]; [27],+/-
same,TOXICITY EFFECTS CONTROLS,[1]; [16],-
same,TOXICITY EFFECTS CONTROLS,[1]; [17],-
same,TOXICITY EFFECTS CONTROLS,"[1]; Experiment 5, Table 12, 48 Hours Post Incubation, 0.1 mg/ml",-
same,TOXICITY EFFECTS CONTROLS,"[1]; Experiment 5, Table 12, 48 Hours Post Incubation, 0.5 mg/ml",-
same,TOXICITY EFFECTS CONTROLS,[1]; [18],-
same,TOXICITY EFFECTS CONTROLS,[1]; [28],+/-
same,TOXICITY EFFECTS CONTROLS,[1]; [29],+/-
CC1=CC(C)=[N+]2CC[N+]3=C(C)C=C(C)[O][Co-3]23([n+]2cc[nH]c2C)([n+]2cc[nH]c2C)[O]1 [Compound 96],VIRUCIDAL EFFICACY 7 Days Post Inoculation Efficacy,VZV,T?
same,TOXICITY EFFECTS CONTROLS,"[1]; Experiment 1, Table 1, 0.001 mg/ml, 24 h",-
same,TOXICITY EFFECTS CONTROLS,"[1]; Experiment 1, Table 1, 0.001 mg/ml, 48 h",-
same,TOXICITY EFFECTS CONTROLS,"[1]; Experiment 1, Table 1, 0.01 mg/ml, 24 h",-
same,TOXICITY EFFECTS CONTROLS,"[1]; Experiment 1, Table 1, 0.01 mg/ml, 48 h",-
same,TOXICITY EFFECTS CONTROLS,"[1]; Experiment 1, Table 1, 0.1 mg/ml, 24 h",-
same,TOXICITY EFFECTS CONTROLS,"[1]; Experiment 1, Table 1, 0.1 mg/ml, 48 h",-
same,TOXICITY EFFECTS CONTROLS,"[1]; Experiment 1, Table 1, 1 mg/ml, 24 h",-
same,TOXICITY EFFECTS CONTROLS,"[1]; Experiment 1, Table 1, 1 mg/ml, 48 h",-
same,toxicity,"[1]; Experiment 1, 1 mg/ml",lack of toxicity
same,TOXICITY EFFECTS CONTROLS,[1]; [20],-
same,TOXICITY EFFECTS CONTROLS,[1]; [21],-
same,TOXICITY EFFECTS CONTROLS,[1]; [22],-
same,TOXICITY EFFECTS CONTROLS,[1]; [23],-
same,TOXICITY EFFECTS CONTROLS,[1]; [24],-
same,TOXICITY EFFECTS CONTROLS,[1]; [25],-
same,TOXICITY EFFECTS CONTROLS,[1]; [26],-
same,TOXICITY EFFECTS CONTROLS,[1]; [27],-
same,TOXICITY EFFECTS CONTROLS,[1]; [4],-
same,TOXICITY EFFECTS CONTROLS,[1]; [5],-
same,TOXICITY EFFECTS CONTROLS,[1]; [6],-
same,TOXICITY EFFECTS CONTROLS,[1]; [7],-
same,TOXICITY EFFECTS CONTROLS,[1]; [8],+/-
same,TOXICITY EFFECTS CONTROLS,[1]; [9],+/-
same,TOXICITY EFFECTS CONTROLS,[1]; [10],-
same,TOXICITY EFFECTS CONTROLS,[1]; [11],-
same,TOXICITY EFFECTS CONTROLS,[1]; [12],-
same,TOXICITY EFFECTS CONTROLS,[1]; [13],+/-
same,TOXICITY EFFECTS CONTROLS,[1]; [14],+/-
same,TOXICITY EFFECTS CONTROLS,[1]; [15],+/-
same,TOXICITY EFFECTS CONTROL,"[1]; 0.001 mg/ml, 24 hrs post incubation",-
same,TOXICITY EFFECTS CONTROL,"[1]; 0.001 mg/ml, 48 hrs post incubation",-
same,TOXICITY EFFECTS CONTROL,"[1]; 0.01 mg/ml, 24 hrs post incubation",-
same,TOXICITY EFFECTS CONTROL,"[1]; 0.01 mg/ml, 48 hrs post incubation",-
same,TOXICITY EFFECTS CONTROL,"[1]; 0.1 mg/ml, 24 hrs post incubation",+/-
same,TOXICITY EFFECTS CONTROL,"[1]; 0.1 mg/ml, 48 hrs post incubation",+/-
same,TOXICITY EFFECTS CONTROL,"[1]; 0.5 mg/ml, 24 hrs post incubation",-
same,TOXICITY EFFECTS CONTROL,"[1]; 0.5 mg/ml, 48 hrs post incubation",-
same,TOXICITY EFFECTS CONTROL,"[1]; 1 mg/ml, 24 hrs post incubation",+/-
same,TOXICITY EFFECTS CONTROL,"[1]; 1 mg/ml, 48 hrs post incubation",+/-
same,TOXICITY EFFECTS CONTROL,"[1]; 5 mg/ml, 24 hrs post incubation",+/-
same,TOXICITY EFFECTS CONTROL,"[1]; 5 mg/ml, 48 hrs post incubation",+
same,TOXICITY EFFECTS CONTROLS,[1]; [16],-
same,TOXICITY EFFECTS CONTROLS,[1]; [17],-
same,TOXICITY EFFECTS CONTROLS,[1]; [18],-
same,TOXICITY EFFECTS CONTROLS,[1]; [28],+/-
same,TOXICITY EFFECTS CONTROLS,[1]; [29],+/-
same,toxicity,[1]; [19],more pronounced in the 0.5 and the 0.1 mg/ml concentrations
same,protection from visible infection and death,HSV-2 strain 186 [2]; concentrations of 0.1 % or more,completely protected
same,animals protected from death,HSV-2 strain 186 [2]; lowest concentration of 0.01 %,6 of 10
same,signs of genital disease,"HSV-2 strain 186 [3]; 2 % and 0.5% groups, 15 mice each",none of these animals developed any signs of genital disease
same,mortality,"HSV-2 strain 186 [3]; 2 % and 0.5% groups, 15 mice each, to day 21 PI",all lived
same,vaginal herpes infection,HSV-2 strain 186 [3]; topical (intravaginal) application before HSV-2 challenge,completely blocked
same,virus in the genital tract,HSV-2 strain 186 [3]; vaginal swabs on day 1 or 2 PI,no detectable virus
